Here are results for 6 compounds from patent US20100016547A1, “Glycosilated Peptide and Medicine Comprising It as an Effective Ingredient” (priority 2005, published 2010).

The target of assay [1] is T1, GLP-1 receptor (Homo sapiens, UniProt P43220).
Description: After being incubated at room temperature for 2 hours, the solution was filtered through a unifilter 96GF/C plate (Perkin-Elmer) pretreated with 1% polyethylenimine containing 0.5% BSA, washed with 25 mM HEPES buffer solution (pH 7.4) containing 0.5% BSA, and radioactivity remained on the filter was measured by a gamma counter (Top Counter; Perkin-Elmer).
Assay [2] addresses T1, GLP-1 receptor. Kind of assay: Assay for production of cAMP.
Description: Assay for Production of cAMP
After stirring at room temperature for an hour, the cells were lysed with Triton X-100 (final concentration: 1%).
Quantity of cAMP was determined using cAMP Femtomolar Kit (CIS Bio International). The reaction solution (1 μL) was moved to a new 384-well plate and diluted by adding 9 μL of dilution buffer. Next, each 5 μL of cAMP-XL665 solution and anti-cAMP cryptate solution of the Kit was added, the mixture was incubated at room temperature for an hour, and time-resolved fluorescence was measured using RUBYstar (BMG LABTECH).

Each structure is given as a SMILES string.

T1 sequence (P43220 24-463, species assumed): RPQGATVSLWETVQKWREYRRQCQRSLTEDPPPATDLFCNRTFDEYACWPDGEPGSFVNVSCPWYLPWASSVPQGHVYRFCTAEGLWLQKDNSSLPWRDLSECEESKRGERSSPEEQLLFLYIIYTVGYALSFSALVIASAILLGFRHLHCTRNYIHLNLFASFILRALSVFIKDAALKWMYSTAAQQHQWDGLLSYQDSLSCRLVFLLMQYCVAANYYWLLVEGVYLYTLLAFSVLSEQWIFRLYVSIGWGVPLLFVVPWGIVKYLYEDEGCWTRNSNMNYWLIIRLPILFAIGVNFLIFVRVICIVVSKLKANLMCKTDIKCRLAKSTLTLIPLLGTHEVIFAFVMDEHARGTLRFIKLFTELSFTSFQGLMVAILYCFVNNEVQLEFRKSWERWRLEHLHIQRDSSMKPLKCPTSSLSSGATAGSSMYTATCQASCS

In the case of `CC[C@H](C)[C@H](NC(=O)[C@H](Cc1ccccc1)NC(=O)[C@H](CCC(=O)O)NC(=O)[C@H](CC(=O)N[C@@H]1O[C@H](CO)[C@@H](O[C@@H]2O[C@H](CO)[C@@H](O[C@@H]3O[C@H](CO[C@H]4O[C@H](CO)[C@@H](O)[C@H](O)[C@@H]4O[C@@H]4O[C@H](CO)[C@@H](O[C@@H]5O[C@H](CO[C@]6(C(=O)O)C[C@H](O)[C@@H](NC(C)=O)[C@H]([C@H](O)[C@H](O)CO)O6)[C@H](O)[C@H](O)[C@H]5O)[C@H](O)[C@H]4NC(C)=O)[C@@H](O)[C@H](O[C@H]4O[C@H](CO)[C@@H](O)[C@H](O)[C@@H]4O[C@@H]4O[C@H](CO)[C@@H](O[C@@H]5O[C@H](CO[C@]6(C(=O)O)C[C@H](O)[C@@H](NC(C)=O)[C@H]([C@H](O)[C@H](O)CO)O6)[C@H](O)[C@H](O)[C@H]5O)[C@H](O)[C@H]4NC(C)=O)[C@@H]3O)[C@H](O)[C@H]2NC(C)=O)[C@H](O)[C@H]1NC(C)=O)NC(=O)[C@H](C)NC(=O)[C@H](C)NC(=O)[C@H](CCC(N)=O)NC(=O)CNC(=O)[C@H](CCC(=O)O)NC(=O)[C@H](CC(C)C)NC(=O)[C@H](Cc1ccc(O)cc1)NC(=O)[C@H](CO)NC(=O)[C@H](CO)NC(=O)[C@@H](NC(=O)[C@H](CC(=O)O)NC(=O)[C@H](CO)NC(=O)[C@@H](NC(=O)[C@H](Cc1ccccc1)NC(=O)[C@@H](NC(=O)CNC(=O)[C@H](CCC(=O)O)NC(=O)[C@H](C)NC(=O)[C@@H](N)Cc1c[nH]cn1)[C@@H](C)O)[C@@H](C)O)C(C)C)C(=O)N[C@@H](C)C(=O)N[C@@H](Cc1c[nH]c2ccccc12)C(=O)N[C@@H](CC(C)C)C(=O)N[C@H](C(=O)N[C@@H](CCCCN)C(=O)NCC(=O)N[C@@H](CCCNC(=N)N)C(N)=O)C(C)C` [GL26NE1], half-maximal inhibition on GLP-1 receptor [1] (IC50) required 11 nM. Further, the EC50 on GLP-1 receptor [2] worked out at 0.8 nM.

`CC[C@H](C)[C@H](NC(=O)[C@H](Cc1ccccc1)NC(=O)[C@H](CCC(=O)O)NC(=O)[C@H](CC(=O)N[C@@H]1O[C@H](CO)[C@@H](O[C@@H]2O[C@H](CO)[C@H](O)[C@H](O)[C@H]2O)[C@H](O)[C@H]1NC(C)=O)NC(=O)[C@H](C)NC(=O)[C@H](C)NC(=O)[C@H](CCC(N)=O)NC(=O)CNC(=O)[C@H](CCC(=O)O)NC(=O)[C@H](CC(C)C)NC(=O)[C@H](Cc1ccc(O)cc1)NC(=O)[C@H](CO)NC(=O)[C@H](CO)NC(=O)[C@@H](NC(=O)[C@H](CC(=O)O)NC(=O)[C@H](CO)NC(=O)[C@@H](NC(=O)[C@H](Cc1ccccc1)NC(=O)[C@@H](NC(=O)CNC(=O)[C@H](CCC(=O)O)NC(=O)[C@H](C)NC(=O)[C@@H](N)Cc1c[nH]cn1)[C@@H](C)O)[C@@H](C)O)C(C)C)C(=O)N[C@@H](C)C(=O)N[C@@H](Cc1c[nH]c2ccccc12)C(=O)N[C@@H](CC(C)C)C(=O)N[C@H](C(=O)N[C@@H](CCCCN)C(=O)NCC(=O)N[C@@H](CCCNC(=N)N)C(N)=O)C(C)C` [GL26NL] returned a 50% inhibitory concentration (IC50) at GLP-1 receptor [1] of 2 nM. The compound also displayed an EC50 on GLP-1 receptor [2] of 0.33 nM.

`CC[C@H](C)[C@H](NC(=O)[C@H](Cc1ccccc1)NC(=O)[C@H](CCC(=O)O)NC(=O)[C@H](CC(=O)N[C@@H]1O[C@H](CO)[C@@H](O[C@@H]2O[C@H](CO[C@]3(C(=O)O)C[C@H](O)[C@@H](NC(C)=O)[C@H]([C@H](O)[C@H](O)CO)O3)[C@H](O)[C@H](O)[C@H]2O)[C@H](O)[C@H]1NC(C)=O)NC(=O)[C@H](C)NC(=O)[C@H](C)NC(=O)[C@H](CCC(N)=O)NC(=O)CNC(=O)[C@H](CCC(=O)O)NC(=O)[C@H](CC(C)C)NC(=O)[C@H](Cc1ccc(O)cc1)NC(=O)[C@H](CO)NC(=O)[C@H](CO)NC(=O)[C@@H](NC(=O)[C@H](CC(=O)O)NC(=O)[C@H](CO)NC(=O)[C@@H](NC(=O)[C@H](Cc1ccccc1)NC(=O)[C@@H](NC(=O)CNC(=O)[C@H](CCC(=O)O)NC(=O)[C@H](C)NC(=O)[C@@H](N)Cc1c[nH]cn1)[C@@H](C)O)[C@@H](C)O)C(C)C)C(=O)N[C@@H](C)C(=O)N[C@@H](Cc1c[nH]c2ccccc12)C(=O)N[C@@H](CC(C)C)C(=O)N[C@H](C(=O)N[C@@H](CCCCN)C(=O)NCC(=O)N[C@@H](CCCNC(=N)N)C(N)=O)C(C)C` [GL26NS6]: on GLP-1 receptor [1], it took 2.9 nM to reach half-maximal inhibition (IC50). At GLP-1 receptor [2], this compound displayed an EC50 of 0.92 nM.

Regarding `CC[C@H](C)[C@H](NC(=O)[C@H](Cc1ccccc1)NC(=O)[C@H](CCC(=O)O)NC(=O)[C@H](CCCCN)NC(=O)[C@H](C)NC(=O)[C@H](C)NC(=O)[C@H](CCC(N)=O)NC(=O)CNC(=O)[C@H](CCC(=O)O)NC(=O)[C@H](CC(C)C)NC(=O)[C@H](Cc1ccc(O)cc1)NC(=O)[C@H](CO)NC(=O)[C@H](CO)NC(=O)[C@@H](NC(=O)[C@H](CC(=O)O)NC(=O)[C@H](CO)NC(=O)[C@@H](NC(=O)[C@H](Cc1ccccc1)NC(=O)[C@@H](NC(=O)CNC(=O)[C@H](CCC(=O)O)NC(=O)[C@H](C)NC(=O)[C@@H](N)Cc1c[nH]cn1)[C@@H](C)O)[C@@H](C)O)C(C)C)C(=O)N[C@@H](C)C(=O)N[C@@H](Cc1c[nH]c2ccccc12)C(=O)N[C@@H](CC(C)C)C(=O)N[C@H](C(=O)N[C@@H](CSCC(=O)N[C@@H](CC(=O)N[C@@H]1O[C@H](CO)[C@@H](O[C@@H]2O[C@H](CO)[C@@H](O[C@@H]3O[C@H](CO[C@H]4O[C@H](CO)[C@@H](O)[C@H](O)[C@@H]4O[C@@H]4O[C@H](CO)[C@@H](O[C@@H]5O[C@H](CO[C@]6(C(=O)O)C[C@H](O)[C@@H](NC(C)=O)[C@H]([C@H](O)[C@H](O)CO)O6)[C@H](O)[C@H](O)[C@H]5O)[C@H](O)[C@H]4NC(C)=O)[C@@H](O)[C@H](O[C@H]4O[C@H](CO)[C@@H](O)[C@H](O)[C@@H]4O[C@@H]4O[C@H](CO)[C@@H](O[C@@H]5O[C@H](CO[C@]6(C(=O)O)C[C@H](O)[C@@H](NC(C)=O)[C@H]([C@H](O)[C@H](O)CO)O6)[C@H](O)[C@H](O)[C@H]5O)[C@H](O)[C@H]4NC(C)=O)[C@@H]3O)[C@H](O)[C@H]2NC(C)=O)[C@H](O)[C@H]1NC(C)=O)C(=O)O)C(=O)NCC(=O)N[C@@H](CCCNC(=N)N)C(N)=O)C(C)C` [GL34CE1], 3.5 nM corresponded to half-maximal inhibition against GLP-1 receptor [1] (IC50). Besides, the 50% effective concentration (EC50) on GLP-1 receptor [2] was found to be 0.72 nM.

On GLP-1 receptor [1], `CC[C@H](C)[C@H](NC(=O)[C@H](Cc1ccccc1)NC(=O)[C@H](CCC(=O)O)NC(=O)[C@H](CCCCN)NC(=O)[C@H](C)NC(=O)[C@H](C)NC(=O)[C@H](CCC(N)=O)NC(=O)CNC(=O)[C@H](CCC(=O)O)NC(=O)[C@H](CC(C)C)NC(=O)[C@H](Cc1ccc(O)cc1)NC(=O)[C@H](CO)NC(=O)[C@H](CO)NC(=O)[C@@H](NC(=O)[C@H](CC(=O)O)NC(=O)[C@H](CO)NC(=O)[C@@H](NC(=O)[C@H](Cc1ccccc1)NC(=O)[C@@H](NC(=O)CNC(=O)[C@H](CCC(=O)O)NC(=O)[C@H](C)NC(=O)[C@@H](N)Cc1c[nH]cn1)[C@@H](C)O)[C@@H](C)O)C(C)C)C(=O)N[C@@H](C)C(=O)N[C@@H](Cc1c[nH]c2ccccc12)C(=O)N[C@@H](CC(C)C)C(=O)N[C@H](C(=O)N[C@@H](CSCC(=O)N[C@@H](CCC(=O)N[C@@H](CC(=O)N[C@@H]1O[C@H](CO)[C@@H](O[C@@H]2O[C@H](CO)[C@@H](O[C@@H]3O[C@H](CO[C@H]4O[C@H](CO)[C@@H](O)[C@H](O)[C@@H]4O[C@@H]4O[C@H](CO)[C@@H](O[C@@H]5O[C@H](CO[C@]6(C(=O)O)C[C@H](O)[C@@H](NC(C)=O)[C@H]([C@H](O)[C@H](O)CO)O6)[C@H](O)[C@H](O)[C@H]5O)[C@H](O)[C@H]4NC(C)=O)[C@@H](O)[C@H](O[C@H]4O[C@H](CO)[C@@H](O)[C@H](O)[C@@H]4O[C@@H]4O[C@H](CO)[C@@H](O[C@@H]5O[C@H](CO[C@]6(C(=O)O)C[C@H](O)[C@@H](NC(C)=O)[C@H]([C@H](O)[C@H](O)CO)O6)[C@H](O)[C@H](O)[C@H]5O)[C@H](O)[C@H]4NC(C)=O)[C@@H]3O)[C@H](O)[C@H]2NC(C)=O)[C@H](O)[C@H]1NC(C)=O)C(=O)O)C(=O)N[C@@H](CC(=O)N[C@@H]1O[C@H](CO)[C@@H](O[C@@H]2O[C@H](CO)[C@@H](O[C@@H]3O[C@H](CO[C@H]4O[C@H](CO)[C@@H](O)[C@H](O)[C@@H]4O[C@@H]4O[C@H](CO)[C@@H](O[C@@H]5O[C@H](CO[C@]6(C(=O)O)C[C@H](O)[C@@H](NC(C)=O)[C@H]([C@H](O)[C@H](O)CO)O6)[C@H](O)[C@H](O)[C@H]5O)[C@H](O)[C@H]4NC(C)=O)[C@@H](O)[C@H](O[C@H]4O[C@H](CO)[C@@H](O)[C@H](O)[C@@H]4O[C@@H]4O[C@H](CO)[C@@H](O[C@@H]5O[C@H](CO[C@]6(C(=O)O)C[C@H](O)[C@@H](NC(C)=O)[C@H]([C@H](O)[C@H](O)CO)O6)[C@H](O)[C@H](O)[C@H]5O)[C@H](O)[C@H]4NC(C)=O)[C@@H]3O)[C@H](O)[C@H]2NC(C)=O)[C@H](O)[C@H]1NC(C)=O)C(=O)O)C(=O)NCC(=O)N[C@@H](CCCNC(=N)N)C(N)=O)C(C)C` [GL34CE2] showed a concentration for half-maximal inhibition (IC50) of 20 nM. At GLP-1 receptor [2], this compound registered a concentration for a half-maximal effect (EC50) of 3.4 nM.

At GLP-1 receptor [1], `CC[C@H](C)[C@H](NC(=O)[C@H](Cc1ccccc1)NC(=O)[C@H](CCC(=O)O)NC(=O)[C@H](CCCCN)NC(=O)[C@H](C)NC(=O)[C@H](C)NC(=O)[C@H](CCC(N)=O)NC(=O)CNC(=O)[C@H](CCC(=O)O)NC(=O)[C@H](CC(C)C)NC(=O)[C@H](Cc1ccc(O)cc1)NC(=O)[C@H](CO)NC(=O)[C@H](CO)NC(=O)[C@@H](NC(=O)[C@H](CC(=O)O)NC(=O)[C@H](CO)NC(=O)[C@@H](NC(=O)[C@H](Cc1ccccc1)NC(=O)[C@@H](NC(=O)CNC(=O)[C@H](CCC(=O)O)NC(=O)[C@H](C)NC(=O)[C@@H](N)Cc1c[nH]cn1)[C@@H](C)O)[C@@H](C)O)C(C)C)C(=O)N[C@@H](C)C(=O)N[C@@H](Cc1c[nH]c2ccccc12)C(=O)N[C@@H](CC(C)C)C(=O)N[C@H](C(=O)N[C@@H](CC(=O)N[C@@H]1O[C@H](CO)[C@@H](O)[C@H](O)[C@H]1NC(C)=O)C(=O)NCC(=O)N[C@@H](CCCNC(=N)N)C(N)=O)C(C)C` [GL34NG] yielded an IC50 of 0.85 nM. This compound also registered an EC50 on GLP-1 receptor [2] of 0.17 nM.

In general, IC50 refers to the concentration that gives 50% inhibition. Read a low IC50 as greater potency. As a reminder, the EC50 is the concentration giving half of the maximal effect. A low value points to greater potency.
